In PubChem BioAssay AID192 (DTP/NCI, 2004):
Several values for one entry are separate records, joined by “and”; a condition that tells them apart may be missing. Equal values may be shown once. Toxic doses and inconclusive results are not listed.

Tested on: BDF1 mice, B16 melanoma ip, median survival T/C
Assay: NCI In Vivo Anticancer Drug Screen. Data for tumor model B16 Melanoma (intraperitoneal) in B6D2F1 (BDF1) mice
Conditions: endpoint: median survival time, higher = longer survival
Procedure, shortened: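 Read-out: survival or tumor size, given as treated/control ratio. Controls received vehicle only; animals bore transplantable tumors.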

[1] = dose: 25.0 mg/kg/injection, schedule: Q01DX009 (ip), vehicle: saline with Tween-80
[2] = dose: 12.5 mg/kg/injection, schedule: Q01DX009 (ip), vehicle: Klucel (hydroxypropylcellulose) (HPC)
[3] = dose: 25.0 mg/kg/injection, schedule: Q01DX009 (ip), vehicle: Klucel (hydroxypropylcellulose) (HPC)
[4] = dose: 50.0 mg/kg/injection, schedule: Q01DX009 (ip), vehicle: Klucel (hydroxypropylcellulose) (HPC)
[5] = dose: 6.25 mg/kg/injection, schedule: Q01DX009 (ip), vehicle: saline with Tween-80
[6] = dose: 12.5 mg/kg/injection, schedule: Q01DX009 (ip), vehicle: saline with Tween-80
[7] = dose: 3.12 mg/kg/injection, schedule: Q01DX009 (ip), vehicle: saline
[8] = dose: 6.25 mg/kg/injection, schedule: Q01DX009 (ip), vehicle: saline
[9] = dose: 12.5 mg/kg/injection, schedule: Q01DX009 (ip), vehicle: saline
[10] = dose: 50.0 mg/kg/injection, schedule: Q01DX009 (ip), vehicle: saline with Tween-80
[11] = dose: 100.0 mg/kg/injection, schedule: Q01DX009 (ip), vehicle: saline with Tween-80
[12] = dose: 0.78 mg/kg/injection, schedule: Q01DX009 (ip), vehicle: saline
[13] = dose: 100.0 mg/kg/injection, schedule: Q01DX009 (ip), vehicle: Klucel (hydroxypropylcellulose) (HPC)

Which T/C (dose: 3.13 mg/kg/injection, schedule: Q01DX009 (ip), vehicle: saline + alcohol) does the source give for `N#Cc1ncc(C(Cl)Cl)nc1Cl` here?
Its T/C is 96 % of control.

And the T/C (dose: 6.25 mg/kg/injection, schedule: Q01DX009 (ip), vehicle: saline + alcohol)?
Its T/C is 91 % of control.

And the T/C (dose: 12.5 mg/kg/injection, schedule: Q01DX009 (ip), vehicle: saline + alcohol)?
The T/C was 93 % of control.

What about the T/C (dose: 25.0 mg/kg/injection, schedule: Q01DX009 (ip), vehicle: saline + alcohol) of the same compound?
Its T/C is 89 % of control.

And the T/C [1]?
The T/C was 94 % of control.

`ClCCCCCCCCCCc1ccccc1` was tested. Which T/C [2] did it give?
The T/C was 90 % of control.

What about the T/C [3] of the same compound?
Its T/C is 90 % of control.

And the T/C [4]?
Its T/C is 89 % of control.

For `Cc1cccc(C2=NCCN2)c1C`, which T/C (dose: 5.0 mg/kg/injection, schedule: Q04DX003 (ip), vehicle: saline with Tween-80) is on record?
Its T/C is 116 % of control.

And the T/C (dose: 20.0 mg/kg/injection, schedule: Q04DX003 (ip), vehicle: saline with Tween-80)?
Its T/C is 116 % of control.

Which results are given for `CCO/C=C1\SC(=S)N(Cc2ccccc2)C1=O`?
T/C (dose: 3.12 mg/kg/injection, schedule: Q01DX009 (ip), vehicle: saline with Tween-80): 111 % of control; T/C [5]: 123 % of control; T/C [2]: 92 % of control; T/C [6]: 123 % of control; T/C [3]: 102 % of control and 105 % of control; T/C [1]: 111 % of control

With `CCOP(=O)(CCCCN1C(=O)c2ccccc2C1=O)OCC` as the compound, how does the T/C (dose: 100.0 mg/kg/injection, schedule: Q01DX009 (ip), vehicle: saline) read?
Its T/C is 104 % of control.

And the T/C (dose: 200.0 mg/kg/injection, schedule: Q01DX009 (ip), vehicle: saline)?
The T/C was 96 % of control.

What about the T/C (dose: 400.0 mg/kg/injection, schedule: Q01DX009 (ip), vehicle: saline) of the same compound?
Its T/C is 103 % of control.

`CC(Cc1ccccc1)NCCn1cnc2c1c(=O)n(C)c(=O)n2C` (stereo not drawn) was tested. Which T/C [7] did it give?
Its T/C is 112 % of control.

What about the T/C [8] of the same compound?
Its T/C is 115 % of control.

What about the T/C [9] of the same compound?
The T/C was 100 % of control.

And the T/C (dose: 25.0 mg/kg/injection, schedule: Q01DX009 (ip), vehicle: saline)?
Its T/C is 109 % of control.

And the T/C (dose: 50.0 mg/kg/injection, schedule: Q01DX009 (ip), vehicle: saline)?
The T/C was 115 % of control.

With `S=C(Nc1ccccn1)c1ccccn1` as the compound, how does the T/C [6] read?
Its T/C is 92 % of control.

What about the T/C [1] of the same compound?
The T/C was 112 % of control.

What about the T/C [10] of the same compound?
Its T/C is 94 % of control.

What about the T/C [11] of the same compound?
Its T/C is 93 % of control.

For `CCCCOCCN1CCN(CCCN2c3ccccc3Sc3ccc(C(F)(F)F)cc32)CC1`, which T/C (dose: 0.29 mg/kg/injection, schedule: Q04DX003 (ip), vehicle: saline) is on record?
Its T/C is 89 % of control.

What about the T/C (dose: 0.58 mg/kg/injection, schedule: Q04DX003 (ip), vehicle: saline) of the same compound?
The T/C was 102 % of control.

What about the T/C [12] of the same compound?
The T/C was 112 % of control.

And the T/C (dose: 1.17 mg/kg/injection, schedule: Q04DX003 (ip), vehicle: saline)?
Its T/C is 107 % of control.

And the T/C (dose: 1.56 mg/kg/injection, schedule: Q01DX009 (ip), vehicle: saline)?
Its T/C is 115 % of control.

And the T/C (dose: 2.34 mg/kg/injection, schedule: Q04DX003 (ip), vehicle: saline)?
Its T/C is 89 % of control.

And the T/C [7]?
Its T/C is 107 % of control.

With `CC(C)(C)N1C(=O)N(C(C)(C)C)C1=O` as the compound, how does the T/C (dose: 75.0 mg/kg/injection, schedule: Q01DX009 (ip), vehicle: other) read?
Its T/C is 102 % of control.

What about the T/C (dose: 150.0 mg/kg/injection, schedule: Q01DX009 (ip), vehicle: other) of the same compound?
Its T/C is 105 % of control.

And the T/C (dose: 300.0 mg/kg/injection, schedule: Q01DX009 (ip), vehicle: other)?
Its T/C is 102 % of control.

For `O=C(NNCc1ccccc1)c1ccccn1`, which T/C (dose: 6.25 mg/kg/injection, schedule: Q01DX009 (ip), vehicle: Klucel (hydroxypropylcellulose) (HPC)) is on record?
Its T/C is 90 % of control.

What about the T/C [3] of the same compound?
The T/C was 90 % of control.

And the T/C [4]?
The T/C was 88 % of control and 100 % of control.

`COc1ccc2c(c1)C/C(=N\O)C2=O` was tested. Which T/C [1] did it give?
The T/C was 99 % of control.

And the T/C [10]?
The T/C was 114 % of control.

What about the T/C [11] of the same compound?
Its T/C is 92 % of control.

What does the source list for `CC1=C(/C=C/C(C)=C/C=C/C(C)=C/C=O)C(C)(C)CCC1`?
T/C (dose: 16.0 mg/kg/injection, schedule: Q01DX005 (ip), vehicle: DMSO): 94 % of control; T/C (dose: 32.0 mg/kg/injection, schedule: Q01DX005 (ip), vehicle: DMSO): 88 % of control; T/C (dose: 64.0 mg/kg/injection, schedule: Q01DX005 (ip), vehicle: DMSO): 89 % of control

Which T/C (dose: 6.25 mg/kg/injection, schedule: Q01DX009 (ip), vehicle: distilled water + Tween-80) does the source give for `COc1c(C)c2c(c(O)c1C/C=C(\C)CCC(=O)O)C(=O)OC2` here?
The T/C was 96 % of control.

What about the T/C (dose: 12.5 mg/kg/injection, schedule: Q01DX009 (ip), vehicle: distilled water + Tween-80) of the same compound?
The T/C was 95 % of control.

And the T/C (dose: 25.0 mg/kg/injection, schedule: Q01DX009 (ip), vehicle: distilled water + Tween-80)?
The T/C was 107 % of control.

And the T/C (dose: 50.0 mg/kg/injection, schedule: Q01DX009 (ip), vehicle: distilled water + Tween-80)?
Its T/C is 94 % of control.

What about the T/C (dose: 100.0 mg/kg/injection, schedule: Q01DX009 (ip), vehicle: distilled water + Tween-80) of the same compound?
Its T/C is 104 % of control.

And the T/C (dose: 200.0 mg/kg/injection, schedule: Q01DX009 (ip), vehicle: distilled water + Tween-80)?
Its T/C is 104 % of control.

`COC(=O)C1(C(=O)OC)C=CCCC1=O` was tested. Which T/C [13] did it give?
Its T/C is 99 % of control.

What about the T/C (dose: 200.0 mg/kg/injection, schedule: Q01DX009 (ip), vehicle: Klucel (hydroxypropylcellulose) (HPC)) of the same compound?
The T/C was 97 % of control.

What does the source list for `CN1CCCCC1CCN1c2ccccc2Sc2ccc(Br)cc21` (stereo not drawn)?
T/C [12]: 109 % of control; T/C [7]: 105 % of control; T/C [8]: 107 % of control; T/C [9]: 96 % of control

How did the T/C [11] turn out when `Nc1cc(S(N)(=O)=O)ccc1SSc1ccc(S(N)(=O)=O)cc1N` was run?
Its T/C is 95 % of control.

What about the T/C (dose: 200.0 mg/kg/injection, schedule: Q01DX009 (ip), vehicle: saline with Tween-80) of the same compound?
Its T/C is 93 % of control.

What does the source list for `CC(=O)O.[Pb]`?
T/C (dose: 1.56 mg/kg/injection, schedule: Q01DX009 (ip), vehicle: saline with Tween-80): 95 % of control; T/C (dose: 3.13 mg/kg/injection, schedule: Q01DX009 (ip), vehicle: saline with Tween-80): 95 % of control; T/C [5]: 95 % of control; T/C [6]: 88 % of control

How did the T/C (dose: 75.0 mg/kg/injection, schedule: Q01DX009 (ip), vehicle: Klucel (hydroxypropylcellulose) (HPC)) turn out when `CCCCCCCCC(=O)CCCCC` was run?
Its T/C is 104 % of control.

And the T/C (dose: 150.0 mg/kg/injection, schedule: Q01DX009 (ip), vehicle: Klucel (hydroxypropylcellulose) (HPC))?
Its T/C is 103 % of control.

And the T/C (dose: 300.0 mg/kg/injection, schedule: Q01DX009 (ip), vehicle: Klucel (hydroxypropylcellulose) (HPC))?
Its T/C is 103 % of control.

How did the T/C (dose: 12.0 mg/kg/injection, schedule: Q01DX009 (ip), vehicle: saline with Tween-80) turn out when `c1ccc2c(c1)C1=NCCN1c1ccccc1-2` was run?
Its T/C is 92 % of control.

What about the T/C (dose: 18.0 mg/kg/injection, schedule: Q01DX009 (ip), vehicle: saline with Tween-80) of the same compound?
The T/C was 94 % of control.

What about the T/C (dose: 26.0 mg/kg/injection, schedule: Q01DX009 (ip), vehicle: saline with Tween-80) of the same compound?
Its T/C is 102 % of control.

What does the source list for `N[C@H](C(=O)O)[C@@H]1CC(Cl)=NO1`?
T/C (dose: 0.25 mg/kg/injection, schedule: Q01DX009 (ip), vehicle: saline): 93 % of control and 96 % of control and 102 % of control; T/C (dose: 0.75 mg/kg/injection, schedule: Q01DX009 (ip), vehicle: saline): 112 % of control; T/C (dose: 1.5 mg/kg/injection, schedule: Q01DX009 (ip), vehicle: saline): 110 % of control; T/C (dose: 3.0 mg/kg/injection, schedule: Q01DX009 (ip), vehicle: saline): 114 % of control; T/C (dose: 6.0 mg/kg/injection, schedule: Q01DX009 (ip), vehicle: saline): 156 % of control; T/C (dose: 12.0 mg/kg/injection, schedule: Q01DX009 (ip), vehicle: saline): 57 % of control

What does the source list for `CN(C)N=Nc1ccc(S(=O)(=O)Nc2ncccn2)cc1`?
T/C [6]: 108 % of control; T/C (dose: 14.7 mg/kg/injection, schedule: Q01DX009 (ip), vehicle: saline with Tween-80): 110 % of control; T/C (dose: 22.0 mg/kg/injection, schedule: Q01DX009 (ip), vehicle: saline with Tween-80): 116 % of control; T/C [1]: 123 % of control; T/C (dose: 33.0 mg/kg/injection, schedule: Q01DX009 (ip), vehicle: saline with Tween-80): 106 % of control and 123 % of control; T/C (dose: 75.0 mg/kg/injection, schedule: Q01DX009 (ip), vehicle: saline with Tween-80): 115 % of control

For `C=CCNC(=S)Nc1cc(Cl)ccc1C`, which T/C (dose: 50.0 mg/kg/injection, schedule: Q04DX003 (ip), vehicle: Klucel (hydroxypropylcellulose) (HPC)) is on record?
Its T/C is 103 % of control.

What about the T/C (dose: 100.0 mg/kg/injection, schedule: Q04DX003 (ip), vehicle: Klucel (hydroxypropylcellulose) (HPC)) of the same compound?
Its T/C is 100 % of control.

Which T/C [3] does the source give for `CCC/C(C)=C(/C#N)CC` here?
The T/C was 105 % of control.

What about the T/C [4] of the same compound?
The T/C was 103 % of control.

And the T/C [13]?
The T/C was 109 % of control.
